Test results from PubChem BioAssay (NCI).
Where “and” joins values, the source holds several entries; their conditions need not be identical. Equal entries are not always repeated.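 In this assay, cells in 96-well plates receive the compound at five concentrations for 48 hours. Endpoints are linearly interpolated between the surrounding concentrations. GI50 = concentration required for 50% inhibition of growth. The concentration for full growth arrest is given as TGI.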

Experiments:
Test in all cases: NCI anticancer screen, dose series, 48 h
HL-60(TB) leukemia = tested on: HL-60(TB) leukemia
SF-295 CNS = tested on: SF-295 CNS
HCT-15 colon = tested on: HCT-15 colon
OVCAR-5 ovarian = tested on: OVCAR-5 ovarian
OVCAR-4 ovarian = tested on: OVCAR-4 ovarian
UACC-62 melanoma = tested on: UACC-62 melanoma
SK-MEL-5 melanoma = tested on: SK-MEL-5 melanoma
OVCAR-8 ovarian = tested on: OVCAR-8 ovarian
SNB-19 CNS = tested on: SNB-19 CNS
SW-620 colon = tested on: SW-620 colon

SMILES	GI50 (HL-60(TB) leukemia)	TGI (HL-60(TB) leukemia)	GI50 (SF-295 CNS)	TGI (SF-295 CNS)	GI50 (HCT-15 colon)	TGI (HCT-15 colon)	GI50 (OVCAR-5 ovarian)	TGI (OVCAR-5 ovarian)	GI50 (OVCAR-4 ovarian)	TGI (OVCAR-4 ovarian)	GI50 (UACC-62 melanoma)	TGI (UACC-62 melanoma)	GI50 (SK-MEL-5 melanoma)	TGI (SK-MEL-5 melanoma)	GI50 (OVCAR-8 ovarian)	TGI (OVCAR-8 ovarian)	GI50 (SNB-19 CNS)	TGI (SNB-19 CNS)	GI50 (SW-620 colon)	TGI (SW-620 colon)
COc1ccc(F)c(F)c1C(=O)c1cnc(NC2CCN(S(C)(=O)=O)CC2)nc1N	0.0672 µM	4.61 µM	0.693 µM and 0.352 µM	> 100 µM	0.484 µM and 0.361 µM	> 100 µM	0.728 µM and 0.251 µM	> 100 µM	1.44 µM and 1.41 µM	> 27.9 µM	0.655 µM and 0.284 µM	2.77 µM and 2.45 µM	0.369 µM and 0.399 µM	4.64 µM and > 7.12 µM	1.18 µM and 0.58 µM	> 100 µM	0.576 µM and 0.445 µM	> 100 µM	0.183 µM and 0.108 µM	> 100 µM
CCN(CC)c1ccc(/C=C/C2=[N+](C)c3ccccc3C2(C)C)c(C)c1	0.0367 µM	0.138 µM	0.0358 µM	1.49 µM	0.321 µM	10.9 µM	0.128 µM	16.8 µM	0.0524 µM	11.2 µM	0.0998 µM	2.14 µM	0.0335 µM	0.0854 µM	0.0629 µM	3.12 µM	0.0684 µM	9.36 µM	0.0703 µM	12.8 µM
CC(C)[O-].CC(C)[O-].O=c1cccccc1[O-].O=c1cccccc1[O-].[Ti+4]		> 100 µM		> 100 µM		> 100 µM		> 100 µM		> 100 µM		> 100 µM		69.8 µM		> 100 µM		> 100 µM		> 100 µM
CC1c2ccccc2N=C2SC(=S)N3CCN=C3N21 (stereo not given)	> 100 µM	> 100 µM	97.8 µM	> 100 µM	> 100 µM	> 100 µM	> 100 µM	> 100 µM	> 100 µM	> 100 µM	> 100 µM	> 100 µM	2.25 µM	35.8 µM	> 100 µM	> 100 µM	> 100 µM	> 100 µM	> 100 µM	> 100 µM
[2H]c1nc(=Nc2cc(NC(=O)C=C)c(N(C)CCN(C)C)cc2OC)[nH]c(-c2cn(C([2H])([2H])[2H])c3ccccc23)c1[2H]	0.848 µM	2.5 µM	1.97 µM	4.5 µM	1.44 µM	3.05 µM	1.04 µM	2.93 µM	3.27 µM	17.3 µM	1.72 µM	3.28 µM	1.64 µM	3 µM	4 µM	24.5 µM	1.4 µM	3.05 µM	1.86 µM	3.87 µM
C=CCNC(=O)N(CCC)CCCC(NC(C)=O)C(=O)NCc1ccccc1 (stereo not given)		> 100 µM		> 100 µM		> 100 µM		> 100 µM		> 100 µM		> 100 µM		> 100 µM		> 100 µM		> 100 µM		> 100 µM
CCn1c(-c2nonc2N)nc2ccncc21	> 25 µM	> 25 µM	> 25 µM	> 25 µM	> 25 µM	> 25 µM	> 25 µM	> 25 µM	> 25 µM	> 25 µM	> 25 µM	> 25 µM	> 25 µM	> 25 µM	> 25 µM	> 25 µM	> 25 µM	> 25 µM	> 25 µM	> 25 µM
CC1=NN(C(=O)c2ccncc2)C(=O)C1N=Nc1ccc(F)cc1 (stereo not given)		> 100 µM		> 100 µM		> 100 µM		> 100 µM		> 100 µM		> 100 µM		> 100 µM		> 100 µM		> 100 µM		> 100 µM
COc1ccc2c(NCCCCCCNc3c4ccccc4nc4cc(OC)ccc34)c3ccccc3nc2c1		0.379 µM		2.04 µM		9.36 µM		1.89 µM		0.461 µM		1.59 µM		5.76 µM		11 µM		3.75 µM		1.08 µM
Nc1cc(-c2ccc(Cl)cc2)nn1-c1nnc(/C=C/c2ccco2)c(=O)[nH]1	4.23 µM	> 28.6 µM	2.1 µM	27.7 µM	1.38 µM	> 49.1 µM	10.9 µM	> 90.5 µM	2.64 µM	13.4 µM	5.45 µM	> 58.6 µM	3.37 µM	20.2 µM	4.09 µM	33 µM	5.11 µM	> 83.3 µM	5 µM	> 100 µM
Cn1c(=O)nc2n(-c3ccc(Cl)c(C(F)(F)F)c3)c3ccccc3nc-2c1=O		46.2 µM		> 100 µM		> 100 µM		> 100 µM		62.9 µM		35.4 µM		26.9 µM		83.1 µM		63.1 µM		62 µM
O=[N+]([O-])c1ccc(-c2cc3c(Nc4ccc(Cl)c(C(F)(F)F)c4)ncnc3s2)cc1	0.906 µM	3.62 µM	1.21 µM	6.75 µM	1.01 µM	> 100 µM	1.35 µM	> 100 µM	1.2 µM	> 100 µM	1.63 µM	> 100 µM	1.13 µM	2.58 µM	2.67 µM	> 100 µM	1.29 µM	> 86.4 µM	2.86 µM	> 100 µM
CCCCCCCCCCCC1CC(=O)NCCCN(C)CCCCN(C)CCCN1C (stereo not given)		5.32 µM		3.07 µM		3 µM		3.3 µM		3.12 µM		3.09 µM		3.43 µM		3.33 µM		3.1 µM		2.35 µM
N.N.N.N.N.O=S(=O)([O-])S(=O)(=O)[O-].[Co+3]	> 100 µM	> 100 µM	> 100 µM	> 100 µM	> 100 µM	> 100 µM	> 100 µM	> 100 µM	> 100 µM	> 100 µM	> 100 µM	> 100 µM	> 100 µM	> 100 µM	> 100 µM	> 100 µM	> 100 µM	> 100 µM	> 100 µM	> 100 µM
CCOc1ccc(Nc2c3ccccc3nc3ccccc23)cc1	1.58 µM and 0.545 µM	5.15 µM and 2.54 µM	0.228 µM and 0.219 µM	1.11 µM and 0.956 µM	0.592 µM and 0.552 µM	3.18 µM	1.91 µM and 0.514 µM	18.3 µM and 13.2 µM	0.748 µM and 1.35 µM	7.36 µM and 10.8 µM	0.506 µM and 0.216 µM	4.25 µM and 1.3 µM	0.343 µM and 0.371 µM	1.33 µM and 1.45 µM	0.54 µM and 0.592 µM	2.45 µM and 15 µM	0.817 µM and 0.556 µM	13.8 µM and 15.3 µM	0.369 µM and 0.339 µM	5.2 µM and 4.02 µM
